From US20260055111A1, “CRYSTALLINE FORM OF PYRAZOLOPYRIMIDINE ESTER COMPOUND AND METHODS OF PREPARING THE SAME” (Shanghai Maius Pharmaceutical Co. Ltd., priority 2022, published 2026)
Entries after “also recorded” stand apart in the source; their conditions may differ.

Legend:
[1] = Stability study: change in purity of solid forms after storage under different conditions; assay type: physicochemical; settings: for Purity, Initial (Day 0): before storage; for Overall stability / degree of degradation compared with other forms: forced degradation conditions of the stability study; for Purity, Room Temperature (Day 10): stored at room temperature for 10 days; for Purity, In Light (Day 10): stored in light for 10 days
Description: Samples of the amorphous and crystalline (Forms I and II) compound of formula (I) were stored under different conditions.
Storage conditions for the crystalline form Form II: at 60° C. for 10 days; at 60° C. and 75% RH (relative humidity) for 10 days; in light for 10 days; and at room temperature for 10 days.
Storage conditions for the amorphous and crystalline (Form I) forms: at 40° C. for 10 days; at 60° C. and 75% RH for 10 days; in light for 10 days; and at room temperature for 10 days.

[2] = Hygroscopicity by dynamic vapor sorption (DVS), with XRPD before and after; assay type: physicochemical
[3] = cited from earlier work
[4] = stored at 60° C. and 75% RH for 10 days
[5] = stored at room temperature and in light for 10 days

SMILES	Purity, Initial (Day 0) [1]	Stability in words ([1]; degradation conditions such as high-temperature and high-humidity)	Overall stability / degree of degradation compared with other forms [1]	Purity, 60° C. + 75% RH (Day 10) [1, 4]	Purity, 60° C. (Day 10) ([1]; stored at 60° C. for 10 days)	Stability in words [1, 5]	Purity, Room Temperature (Day 10) [1]	Purity, In Light (Day 10) [1]	XRPD pattern before and after the DVS determination [2]	4-AAM AUC ([3]; AUC of the active metabolite 4-AAM, among the prodrugs of CN 202111131059.0)	AUC of the prodrug itself ([3]; among the prodrugs of CN 202111131059.0)	Rate of hydrolysis in blood ([3]; among the pyrazolopyrimidine ester prodrugs of CN 202111131059.0)	Purity, 40° C. (Day 10) ([1]; stored at 40° C. for 10 days)	Hygroscopicity [2]	Degradation in words ([1]; stored at 40° C. for 10 days, listed as amorphous)	Degradation in words ([1]; stored at 40° C. for 10 days, listed as amorphous compound)	Degradation in words [1, 4]
C=CC(=O)N1CCC[C@@H](n2nc(-c3ccc(Oc4ccccc4)cc3)c3c(NC(=O)OCCCC)ncnc32)C1 [Form II, 1-[(3R)-3-[4-(butoxycarbonyl)-amino-3-(4-phenoxyphenyl)-1H-pyrazolo[3,4-d]pyrimidin-1-yl]-1-piperidinyl]-2-propen-1-one]	99.13%	stable	lower degree of degradation than the amorphous form; also recorded: obviously better than the amorphous form and even better than Form I	97.80%	98.90%	more stable	99.13%	99.17%	remained the same								
C=CC(=O)N1CCC[C@@H](n2nc(-c3ccc(Oc4ccccc4)cc3)c3c(NC(=O)OCCCC)ncnc32)C1 [formula (I), 1-[(3R)-3-[4-(butoxycarbonyl)-amino-3-(4-phenoxyphenyl)-1H-pyrazolo[3,4-d]pyrimidin-1-yl]-1-piperidinyl]-2-propen-1-one]										highest	lowest	most rapidly					
C=CC(=O)N1CCC[C@@H](n2nc(-c3ccc(Oc4ccccc4)cc3)c3c(NC(=O)OCCCC)ncnc32)C1 [Form I, 1-[(3R)-3-[4-(butoxycarbonyl)-amino-3-(4-phenoxyphenyl)-1H-pyrazolo[3,4-d]pyrimidin-1-yl]-1-piperidinyl]-2-propen-1-one]	98.68%		lower degrees of degradation than the amorphous form	90.62%		very stable; also recorded: remaining stable	98.64%	98.62%					98.60%	almost non-hygroscopic			
C=CC(=O)N1CCC[C@@H](n2nc(-c3ccc(Oc4ccccc4)cc3)c3c(NC(=O)OCCCC)ncnc32)C1 [Amorphous, 1-[(3R)-3-[4-(butoxycarbonyl)-amino-3-(4-phenoxyphenyl)-1H-pyrazolo[3,4-d]pyrimidin-1-yl]-1-piperidinyl]-2-propen-1-one]	99.07%		poor stability	0.27%			98.01%	98.63%					96.10%		Noticeable degradation	Significant degradation	almost complete degradation
